From US20110124572A1, “SYNDECAN-4 IS A REGULATOR OF RAC1-GTP” (priority 2008, published 2011) come the findings set out here.

Assay type in all cases: cell-based, human
The test system of one experiment is Rac1. Briefly: Rac1 GTPase pulldown assay (Rac1-GTP level). As to conditions: wt-, Ser179Ala and Ser179Glu syndecan-4 cell lines, Gö6976. The protocol:
Rac1 activity was characterised by applying RAC-activation kit purchased from Millipore (Upstate) and it was used according to the manufacturer's prescription. Briefly, p21-binding domain of PAK-1 was fused to agarose beads, which specifically binds to and precipitates Rac-GTP and Cdc42-GTP from cell lysates. Cells were harvested at 70% confluency of 25 ml flasks. The wild type Syndecan-4, Ser179Ala and Ser179Glu cells were treated for 60 minutes with 1 μM PMA (Sigma-Aldrich), or 500 nM rottlerin (Sigma-Aldrich), or 10 nM Gö6976 (Biosource, Camarillo, Calif., USA). The active Rac1 was detected by Western blotting using mouse anti-Rac1 antibody (Upstate). To test whether GST-Pak1-Rac/Cdc42-binding domain could pull syndecan-4 down, the blot was probed with rabbit polyclonal anti-syndecan-4 or mouse monoclonal anti-GFP antibody.

A further experiment has as its system MCF-7 cells. Briefly: Cell migration assay (time-lapse) on fibronectin. As to conditions: nt-MCF-7 (non-transfected) cells, PMA stimulation, solitary cell migration. On the procedure: The MCF-7 breast adenocarcinoma cells were obtained from ATCC, cultured in DMEM:F12 (Cambrex, Walkersville, Md., USA) supplemented with 10% fetal bovine serum (FBS) (Gibco, Bethesda, Md., USA), otherwise stated. The stably transfected cell lines were propagated in DMEM:F12 medium supplemented with 10% FBS and 200 μg/ml G418 (Cambrex, Walkersville, Md., USA). The cell lines were seeded onto glass coverslips or plastic dishes coated for 2 h with 10 μg/ml fibronectin (Sigma-Aldrich, St. Louis, Mo., USA). Scratch-wound assays were performed on stable transfected Syndecan-4 wild, Ser179Ala and Ser179Glu cells at 80% confluency. The cultures were scratched with a sterile P10 pipette tip 3-4 times in parallel lines. Images were taken 12, 24, 36 and 48 h following wounding.
In the cell migration assay 60% confluent MCF7 cells or the stably transfected lines were stimulated by 1 μM phorbol-12-myristate-13-acetate (PMA; from Sigma-Aldrich St. Louis, Mo., USA), otherwise stated. The images were taken using 10×, 20×0.3 objective at 3-min intervals for 2 h using inverted microscope (Leica) and organized into time-lapse movies in Adobe ImageReady® v. 8.
Results of the previous scratch-wound assay gave a hint that the Ser179Glu cells gained a migratory phenotype. […]

The subject of another experiment is MCF7 cells. Briefly: Neuronal differentiation under serum starvation. The conditions noted are these: 4-5 weeks, bIII-tubulin marker. On the procedure: FIG. 8. Neuronal differentiation induced by short Syndecan-4 peptides. MCF7 cells were transfected with wild type syndecan-4 (A) and DEGEpC3 (B), respectively. […] Red: b3-tubulin staining. Blue: Hoechst nuclear staining (A). DEGEpC3: […] was joined to GFP.
Short peptides with the sequence […] (SEQ.ID.NO.: 3) and […] (SEQ.ID.NO.: 4) were tested under serum starvation.

Where “and” joins values, the source holds several entries; their conditions need not be identical. Equal entries are not always repeated.

On to `Cn1c2ccccc2c2c3c(c4c5ccccc5n(CCC#N)c4c21)C(=O)NC3` [Gö6976, reference compound], for which, in the experiment on Rac1, the “activated Rac1 level” value is “reduced”.

In the case of `CCCCCCCCCCCCCC(=O)O[C@@H]1[C@@H](C)[C@@]2(O)[C@@H](C=C(CO)C[C@]3(O)C(=O)C(C)=C[C@@H]23)[C@@H]2C(C)(C)[C@]12OC(C)=O` [PMA, phorbol-12-myristate-13-acetate, reference compound], the migration velocity with MCF-7 cells is 0.3±0.1 μm/min and 0.3 μm/min.

Consider MYRMKKKDEGEYDL [DEGEpC3], for which, in the experiment on MCF7 cells, the neuronal differentiation phenotype result was “neuron-like phenotype”.

Turning to “RMKKKDEGDYDLG (Syndecan-4 sequence) [SEQ.ID.NO.: 4]”, in the experiment on MCF7 cells, the neuronal differentiation phenotype result is recorded as “neuron-like phenotypes”.

On to “RMKKKDEGEYDLG (Syndecan-4 sequence) [SEQ.ID.NO.: 3]”, for which the neuronal differentiation phenotype result in the experiment on MCF7 cells is recorded as “neuron-like phenotypes”.
